We go through 2 compounds from patent publication US20230114280A1, “COMPOSITIONS AND METHODS CONTAINING REDUCED NICOTINAMIDE RIBOSIDE FOR PREVENTION AND TREATMENT OF NEUROLOGICAL DISEASES AND CONDITIONS” (SOCIETE DES PRODUITS NESTLE S.A., priority 2020, published 2023).

Entries after “also recorded” stand apart in the source; their conditions may differ. Counter-ions that a name gives are not always drawn. Some results are limits rather than exact numbers.

Series [1] has as its system mice. Nature of the series: Tissue NAD+ levels after IP injection of NR or NRH in mice. It is filed as in vivo. The settings on record: IP 500 mg/kg, after 1 h.
Series [2] deals with primary hepatocytes from either control or NRK1 knockout (NRK1 KO) mice. Nature of the series: NAD+ levels in primary hepatocytes from control or NRK1 knockout mice. It is filed as cell-based. To be noted: after 1 hour of treatment. From the text:
(§1) If NRH led to NAD+ synthesis via the formation of NMNH, this hypothetical path would require the phosphorylation of NRH into NMNH.

A short description of series [3]: Circulating NAM, NRH and NR after IP injection in mice. The series is classed as in vivo. The protocol: (§2) The UHPLC consisted of a binary pump, a cooled autosampler, and a column oven (DIONEX Ultimate 3000 UHPLC+ Focused, Thermo Scientific), connected to a triple quadrupole spectrometer (TSQ Vantage, Thermo Scientific) equipped with a heated electrospray ionisation (H-ESI) source. Of each sample, 2 µL were injected into the analytical column (2.1 mm x 150 mm, 5 µm pore size, 200 Å HILICON iHILIC®-Fusion(P)), guarded by a pre-column (2.1 mm x 20 mm, 200 Å HILICON iHlLIC®-Fusion(P) Guard Kit) operating at 35° C. The mobile phase (10 mM ammonium acetate at pH 9, A, and acetonitrile, B) was pumped at 0.25 mL/min flow rate over a linear gradient of decreasing organic solvent (0.5-16 min, 90-25% B), followed by re-equilibration for a total run time of 30 min. The MS operated in positive mode at 3500 V with multiple reaction monitoring (MRM). The software Xcalibur v4.1.31.9 (Thermo Scientific) was used for instrument control, data acquisition and processing.

Series [4] in a line: Stability of NRH or NR spiked in isolated mouse plasma. It is filed as in vitro ADME. How it is done:
as §2
(§3) NR degradation to NAM has been proposed as a limitation for its pharmacological efficacy.

For series [5], the system named is Primary rat cortical neurons. Nature of the series: Amyloid β oligomer induced loss of neurite network in primary cortical neurons (MAP-2 staining). It is filed as cell-based. To be noted: NRH 0.01 mM pre-incubated 24 hr or 6 hr, Aβ1-42 15 µmol/L for 24 h. How it is done:
FIG. 7. […] Primary rat cortical neurons were cultured as described in Callizot et al., 2013. […] The Aβ1-42 preparation was done as described in Callizot et al., 2013. The Aβ1-42 preparation was added to a final concentration of 15 µmol/L (2.25 µmol/L oligomers, AβO) diluted in control medium in presence of compounds and let for 24 h. The cortical neurons were then fixed by a cold solution of ethanol (95%) and acetic acid (5%), permeabilized with saponin and incubated with an anti microtubule-associated-protein 2 (MAP-2), to stain cell bodies and neurites, allowing the study of the length of the neurite network. For each condition, 30 pictures (representative of the all well area) per well were taken using ImageXpress (Molecular Devices) with 20x magnification. Neurite length was then evaluated as % of control values. All values are expressed as mean +/-SEM from 5-6 independent wells. * indicates statistically significant difference vs. the amyloid b1-42 treated groups.
Primary rat cortical neurons were cultured as described in Callizot et al., 2013. […] The Aβ1-42 preparation was done as described in Callizot et al., 2013. The Aβ1-42 preparation was added to a final concentration of 15 µmol/L (2.25 µmol/L oligomers, AβO) diluted in control medium in presence of compounds and let for 24 h. […] Neurite length was then evaluated as % of control values.

Series [6] relates to C2C12 myotubes. Nature of the series: NAD+ levels after NRH treatment in C2C12 myotubes. The series is classed as cell-based.
For series [7], the system named is INS1-cells. Nature of the series: NAD+ levels after NRH treatment in INS1-cells. It is filed as cell-based.
Excerpt in series [8]: as §3
In series [9] the test system is AML12 cells. Nature of the series: Pathway of NRH-induced NAD+ synthesis: intracellular metabolites and pathway inhibitors (NBTI, FK866, 5-IT, ABT-702, gallotannin). The series is classed as cell-based. Further details: action on NAD+ under adenosine kinase inhibition by 5-IT: dose or concentration left out as unconfirmed. How it is done: FIG. 4. NRH leads to NAD+ biosynthesis through an adenosine kinase dependent path. […] Then, 1 hour later, acidic extracts were obtained to measure NAD^+ levels. All values in the figure are expressed as mean +/- SEM of 3 independent experiments. * indicates statistical difference at p< 0.05 vs. the respective vehicle treated group.
A path in which NRH would be converted to NMNH, then to NADH and this would be finally oxidized to NAD+.
In order to understand the exact path by which NRH synthesizes NAD+, we initially evaluated whether NRH, could be transported into the cell by equilibrative nucleoside transporters (ENTs).
as §1
Considering the molecular structure of NRH, we reasoned that an alternative nucleoside kinase could be responsible for the phosphorylation of NRH.
As a follow-up step, NMNAT enzymes could catalyze the transition from NMNH to NADH.

The subject of series [10] is 3T3 fibroblasts. Nature of the series: NAD+ levels after NRH treatment in 3T3 fibroblasts. It is filed as cell-based.
In series [11] the test system is AML12 hepatocytes. Nature of the series: Intracellular NAD+ levels in AML12 hepatocytes treated with NRH or NR (dose-response, time course). It is filed as cell-based. How it is done: FIG. 3. NHR acts rapidly after 5 minutes from treatment.

In the case of `NC(=O)c1ccc[n+]([C@@H]2O[C@H](CO)[C@@H](O)[C@H]2O)c1` [NR, 1-b-D-ribofuranosyl-3-pyridinecarboxamide salt, reference compound], the “NAD+ levels in liver, muscle and kidney” value in series [1] was “increased NAD+ levels in liver, muscle and kidney”. The “NAD+ levels in NRK1 KO derived primary hepatocytes” value in series [2] was “failed to increase NAD+ levels”. Moreover, the “NAM levels in circulation” value in series [3] (mice, IP 500 mg/kg) is listed as “highly increased”. Also, in series [4] (2 h of incubation), the “generation of NAM in isolated mouse plasma” value is “increase in NAM” and the “levels of the compound in isolated mouse plasma” value is reported as “NR levels decayed in plasma”.

“dihydro-1-beta-D-ribofuranosyl-3-pyridinecarboxamide [NRH]”: the “neurite network / neurite length after Amyloid β1-42 exposure” value in [5] is “protects against Amyloid β oligomer induced loss of neurite network; also recorded: protects against Amyloid β-oligomer induced toxicity in terms of neurite length”. For the same compound, the “NAD+ levels” value in series [6] is “highly elevated NAD+ levels”. Also, the “NAD+ levels” value in [7] was “highly elevated NAD+ levels”. In series [8], the “degradation to NAM in FBS supplemented media” value is given as “did not degrade to NAM”. Further, the “action on NAD+ under adenosine kinase inhibition by 5-IT” value in [9] (5-IT for 1 hour prior to NRH, NAD+ measured 1 hour later) was “fully ablated the action of NRH”. The “formation of NR and NMN after NRH treatment with 5-IT” value in series [9] (5-IT treatment) was “prevented the formation of NR and NMN”. The “intracellular detection of NRH and NMNH” value in series [9] (5 minutes after treatment) was “could be detected intracellularly”. Further, the “generation of NMNH, NADH and NAD+ upon inhibition of AK (metabolomic analyses)” value in [9] (after NRH treatment) was “fully blunted”. Also, the “intracellular NR and NMN after treatment” value in series [9] (compared with NR treatment) was “increase in intracellular NR and NMN, greater than that triggered by NR itself”. For the same compound, the “NAD+ synthesis with NMNAT inhibitor gallotannin” value in series [9] (gallotannin) was “largely compromised NAD+ synthesis”. Besides, the “NRH action with gallotannin at maximal doses” value in [9] (gallotannin, NRH 0.5 mM) is reported as “part of the NRH action remained”. Also, in series [9] (gallotannin, submaximal NRH doses), the “NRH action with gallotannin at submaximal doses” value is recorded as “totally blocked”. Further, the “capacity as extracellular NAD+ precursor under ENT blockade” value in series [9] (in the presence of S-(4-nitrobenzyl)-6-thioinosine (NBTI)) is on record as “largely lost its capacity as an extracellular NAD+ precursor”. For the same compound, the “action on NAD+ under adenosine kinase inhibition by ABT-702” value in [9] (second, structurally different AK inhibitor ABT-702) is recorded as “role of AK in NRH-mediated NAD+ synthesis was confirmed”. In addition, the “dependence of action on NAMPT” value in [9] (with FK866, a NAMPT inhibitor) is reported as “NAMPT-independent”. Moreover, the “NAD+ levels in liver, muscle and kidney” value in series [1] was “increased NAD+ levels in liver, muscle and kidney”. Further, in series [10], the “NAD+ levels” value was “highly elevated NAD+ levels”. Besides, in [11], the “ability to increase intracellular NAD+ compared with NR” value is recorded as “better than NR; also recorded: superior to that of NR”, the “concentration range of maximal effects on NAD+ synthesis” value is given as “around the millimolar range” and the “time to significant increases in NAD+ levels after treatment” value is no more than 5 min. Further, in series [11] (around the millimolar range), the “increase of intracellular NAD+ levels at maximal effect” value is recorded as “more than 10 fold”. Moreover, the “concentration at which NAD+ levels are significantly increased” value in series [11] (dose-response) is 10 µM. Moreover, the NR in circulation entry in series [3] (mouse, in vivo) was “much higher levels than those detected after NR injection itself”. Further, the “NAM levels in circulation” value in [3] (mouse, in vivo, ip, 500 mg/kg) is recorded as “only a very mild increase”. For the same compound, in [4], the “NR production on incubation in isolated plasma” value is recorded as “did not lead to NR production”.
